Experimental data: patent US9244074B2 (University of Hawaii, priority 2011, dated 2016)
*1 amine or outer side, *2 acyl side, *3 side chain or, on linkers, in order; H or OH if unused. Where a SMILES comes first, the peptide text is derived from it. Bridges are numbered along the chain shown (N, C = ends). Roman numbers before positions name the chains, in order. [ ]: non-standard residue; d: D form. Actinocin(9to1) = Cc1c2oc3c(C)ccc(C(=O)[*:1])c3nc-2c(C(=O)[*:2])c(N)c1=O; NMeV = CN[C@H](C(=O)O)C(C)C; Sar = CNCC(=O)O

Legend:
[1] = tested on: human mesothelial (HM) cells; test: HMGB1 localization in HM cells by immunofluorescence staining; type: cell-based; conditions: 6 hrs exposure; H2O2 100 μM, actinomycin D 0.1 μM
Experimental: After fixation and permeabilization, cells were incubated with HMGB1 antibody (BD Bioscience Pharmingen) and a fluorescein-conjugated secondary antibody (Chemicon, Temecula). Nuclei were stained with DAPI.

[2] = tested on: macrophages; test: TNF-α secretion by macrophages given culture medium from exposed HM; type: cell-based, human; conditions: concentrated HM culture medium added to macrophages
Experimental: Expression levels of HMGB1 and its receptors RAGE, TLR2 and TLR4 in a panel of 8 MM cell lines and 8 distinct primary HM cultures were determined Primary human mesothelial cells (HM) were obtained from pleural effusions of eight different patients, pathologically diagnosed free of malignancy at the Queen's Medical Center, Honolulu, Hi. […] HM were cultured in Dulbecco's Modified Eagle Medium (DMEM) (Mediatech Inc., Manassas, Va.) containing 20% fetal bovine serum (FBS) (Gibco, Carlsbad, Calif.) and penicillin-streptomycin (100 units/ml penicillin G and 100 μg/ml streptomycin sulfate) (GIBCO), and were used between second and fifth passages. THP-1 human monocytes (ATCC, Manassas, Va.) were differentiated into macrophages by phorbol 12-myristate 13-acetate (TPA). The pleural malignant mesothelioma (MM) cell lines were established from surgically resected human MM specimens and used comparatively in our studies. REN cells were provided by Dr. Steven Albelda (University of Pennsylvania, Philadelphia, Pa.), while all other cell lines used in this study were provided by Dr. Harvey I. Pass (NYU School of Medicine, New York, N.Y.). MM cells were maintained in DMEM containing 10% FBS. All cells were cultured at 37° C. in a humidified atmosphere with 5% CO2 and grown to approximately 80-90% confluency. […]
Next, it was determined whether the release of HMGB1 was linked to an inflammatory response. […]

Compound | HMGB1 localization in HM cells [1] | macrophage secretion of TNF-α induced by culture medium from HM exposed to the substance [2]
OO [H2O2] | translocated from the nucleus into the cytosol | –
Cc1c2oc3c(C)ccc(C(=O)N[C@@H]4C(=O)N[C@H](C(C)C)C(=O)N5CCC[C@H]5C(=O)N(C)CC(=O)N(C)[C@@H](C(C)C)C(=O)O[C@@H]4C)c3nc-2c(C(=O)N[C@@H]2C(=O)N[C@H](C(C)C)C(=O)N3CCC[C@H]3C(=O)N(C)CC(=O)N(C)[C@@H](C(C)C)C(=O)O[C@@H]2C)c(N)c1=O [actinomycin D] (I: T[dV]P[Sar][NMeV] / II: T[dV]P[Sar][NMeV]; ester I:1-I:C, II:1-II:C; linker I:N-II:N via Actinocin(9to1)) | remained within the nucleus | did not induce TNF-α secretion
